# Reference: article PMC6934184, “Selective DNA-PKcs inhibition extends the therapeutic index of localized radiotherapy and chemotherapy” (The Journal of Clinical Investigation, 2019)
# Biological target: T1, STK3 (MST2) (Homo sapiens, UniProt Q13188)
# T1 construct: purchased Thermo Fisher Scientific (Life Technologies) SelectScreen
# Test: SelectScreen Z'LYTE
# Type: biochemical
# In short: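 Percent values come from Thermo SelectScreen profiling of NU5455, combining activity and binding assays. CSF1R was run in Z'LYTE format at Km app ATP, and CAMK1 in Adapta format with ATP listed at 10.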
# T1 sequence (Q13188 whole entry): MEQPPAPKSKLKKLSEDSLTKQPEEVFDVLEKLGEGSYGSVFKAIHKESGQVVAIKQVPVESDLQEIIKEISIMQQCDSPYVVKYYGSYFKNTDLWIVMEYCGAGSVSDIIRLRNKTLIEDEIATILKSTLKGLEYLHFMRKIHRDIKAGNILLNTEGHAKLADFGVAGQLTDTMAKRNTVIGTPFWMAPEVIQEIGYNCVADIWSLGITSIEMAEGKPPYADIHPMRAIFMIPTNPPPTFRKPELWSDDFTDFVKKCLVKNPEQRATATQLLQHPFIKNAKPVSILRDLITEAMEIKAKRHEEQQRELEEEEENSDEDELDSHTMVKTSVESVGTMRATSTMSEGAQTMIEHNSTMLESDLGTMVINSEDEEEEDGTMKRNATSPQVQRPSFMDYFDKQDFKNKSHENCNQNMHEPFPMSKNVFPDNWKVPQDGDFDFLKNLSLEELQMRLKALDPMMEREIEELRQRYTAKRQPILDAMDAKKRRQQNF
smiles,measurement,value
CN(C(=O)CN1CCOCC1)c1ccc2sc3c(-c4cccc5c(=O)cc(N6CC7CCC(C6)O7)oc45)cccc3c2c1 [NU5455],inhibition at 1 µM,-10.3%
